In PMC5854716, “Synthesis, molecular docking, ctDNA interaction, DFT calculation and evaluation of antiproliferative and anti-Toxoplasma gondii activities of 2,4-diaminotriazine-thiazole derivatives” (Medicinal Chemistry Research, 2018):
≈ marks a conversion by molar mass, not a printed value.

Columns and labels:
[1] = tested on: mouse L929 fibroblast; experiment: Cell viability assay (MTT), L929; assay type: cell-based; conditions: 24 h; for CC30 L929: concentration for 30% proliferation inhibition
Experimental: The epithelial cell line VERO (ATCC-Catalog No. CCL-81^TM), derived from the kidney of the African green monkey, Cercopithecus aethiops and fibroblast cell line L-929 (ATCC-Catalog No. CCL-1^TM), derived from Mus musculus (http://www.atcc.org) were grown in Iscoves’s Modified Dulbecco’s Medium (IMDM) supplemented with 10% (v/v) fetal bovine serum (FBS), plus 2 mM L-glutamine, 100 U/ml penicillin, 100.00 µg/ml streptomycin, 5 × 10^−5 M 2-mercaptoethanol and maintained at 37 °C in a 10% CO2 atmosphere. Subcultures were performed via enzymatic cell dissociation in 0.25% trypsin. After dissociation, the cells were placed in culture medium at 4 °C with 10% FBS to inhibit the action of trypsin. The isolated cells were centrifuged for 10 min at 1000×g at 4 °C, and the cells were grown in new bottles. This procedure was repeated when cells reached a confluence of ~90%. All commercial reactants and solvents were purchased from either Sigma-Aldrich Laborchemikalien GmbH (Dzitko et al. [2014]).
Suspensions of the compounds 4a–l were freshly prepared (5 mg/ml DMSO) before the cells were exposed, and diluted to appropriate concentrations; 0.9, 1.8, 3.9, 7.8, 15.6, 31.2, 62.5, and 125.00 μg/ml with the culture medium. Cells treated with 2.5% DMSO-solvent served as a control in each experiment.
The effects of tested compounds on the viability of mouse fibroblasts L929 and […] VERO cells were evaluated using the MTT assay. The MTT assay was used according to international standards: ISO 10993-5:2009 (Tests for in vitro cytotoxicity; http://www.iso.org/iso/catalogue_detail.htm? csnumber = 36406). L929 and VERO cells were plated into 96-well plates at a density of 1.0 × 10^4/100 μl/well in culture medium and allowed to attach for 24 h before treatment. Afterwards, culture medium in the plates was replaced by 100 μl compounds suspension at concentration of 0–125 μg/ml and the cells were exposed for 24 h. Then 1 mg/ml MTT (50 μl/well) was added to each well and incubated at 37 °C, 10 % CO2 for 2 h. Mitochondrial dehydrogenases of viable cells reduce the yellowish water-soluble MTT to water-insoluble formazan crystals, which were solubilized with dimethyl sulfoxide (DMSO). The cell culture medium was aspirated cautiously, after which 150 μl DMSO was added to each well and mixed thoroughly. Optical density (OD) was read on the ELISA reader (Multiskan EX, Labsystems; http://www.mtxlsi.com/multiskan_EX.htm) at 550 nm. The results were expressed as percentage viability compared with the treated 2.5% DMSO controls. All experiments were performed in triplicate.

[2] = tested on: Toxoplasma gondii BK strain; experiment: T. gondii tachyzoite intracellular proliferation in VERO host cells ([3H]uracil incorporation); assay type: cell-based; conditions: VERO host cells
Summary of the method: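 VERO monolayers (2 × 10^4 cells/well) infected with 2 × 10^5 T. gondii tachyzoites/well in medium containing compounds at 0.9–125.00 μg/ml, with sulfadiazine at 5.0–2500.0 μg/ml as control, for 48 h at 37 °C. Growth measured by [3H]uracil incorporation over a further 18–20 h by scintillation counting, with host-cell-only cpm subtracted.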

Question: Which “Viability L929” value ([1]; 0.9 µg/ml) does the source give for C/C(=N\Nc1nc(-c2ccc(NS(C)(=O)=O)cc2)cs1)c1ccc(Nc2nc(N)nc(N)n2)cc1 [Compound 4j, (E)-N-(4-(2-(2-(1-(4-(4,6-diamino-1,3,5-triazin-2-yloamino)phenyl)ethylidene)hydrazinyl)thiazol-4-yl)phenyl)-methanesulfonamide] here?
Answer: Its value is 98.90%.

Question: What about the “Viability L929” value ([1]; 1.8 µg/ml) of the same molecule?
Answer: The value was 106.36%.

Question: What about the “Viability L929” value ([1]; 3.9 µg/ml) of the same molecule?
Answer: Its value is 104.20%.

Question: And the “Viability L929” value ([1]; 7.8 µg/ml)?
Answer: Its value is 101.86%.

Question: What about the “Viability L929” value ([1]; 15.6 µg/ml) of the same molecule?
Answer: The value was 100.71%.

Question: What about the “Viability L929” value ([1]; 31.2 µg/ml) of the same molecule?
Answer: Its value is 104.07%.

Question: And the “Viability L929” value ([1]; 62.5 µg/ml)?
Answer: Its value is 102.92%.

Question: And the “Viability L929” value ([1]; 125.0 µg/ml)?
Answer: Its value is 106.67%.

Question: And the “CC30 L929” value [1]?
Answer: The value was greater than 125.0 µg/mL.

Question: And the “T. gondii intracellular proliferation” value ([2]; 0.9 µg/ml)?
Answer: The value was 99.93%.

Question: What about the “T. gondii intracellular proliferation” value ([2]; 1.8 µg/ml) of the same molecule?
Answer: Its value is 100.25%.

Question: And the “T. gondii intracellular proliferation” value ([2]; 3.9 µg/ml)?
Answer: The value was 99.58%.

Question: And the “T. gondii intracellular proliferation” value ([2]; 7.8 µg/ml)?
Answer: Its value is 89.65%.

Question: What about the “T. gondii intracellular proliferation” value ([2]; 15.6 µg/ml) of the same molecule?
Answer: The value was 78.25%.

Question: What about the “T. gondii intracellular proliferation” value ([2]; 31.2 µg/ml) of the same molecule?
Answer: Its value is 67.01%.

Question: And the “T. gondii intracellular proliferation” value ([2]; 62.5 µg/ml)?
Answer: The value was 46.07%.

Question: What about the “T. gondii intracellular proliferation” value ([2]; 125.0 µg/ml) of the same molecule?
Answer: The value was 34.60%.

Question: And the “IC50 (50% inhibition of T. gondii proliferation in vitro)” value ([2]; GraphPad Prism curves)?
Answer: Its value is 59.87 µg/mL.

Question: For C/C(=N\Nc1nc(-c2ccccc2)cs1)c1ccc(Nc2nc(N)nc(N)n2)cc1 [Compound 4k, (E)-N^2-(4-(1-(2-(4-phenyl-1,3-thiazol-2-yl)hydrazinylidene)ethyl)phenyl)-1,3,5-triazine-2,4,6-triamine], which “CC30 L929” value [1] is on record?
Answer: Its value is greater than 125.0 µg/mL.

Question: What about the activity at 0.9 µg/mL ([2]; Toxoplasma gondii, 0.9 µg/ml) of the same molecule?
Answer: Its activity at 0.9 µg/mL is 100%.

Question: And the activity at 1.8 µg/mL ([2]; Toxoplasma gondii, 1.8 µg/ml)?
Answer: The activity at 1.8 µg/mL was 100%.

Question: What about the activity at 3.9 µg/mL ([2]; Toxoplasma gondii, 3.9 µg/ml) of the same molecule?
Answer: The activity at 3.9 µg/mL was 96.3%.

Question: What about the activity at 7.8 µg/mL ([2]; Toxoplasma gondii, 7.8 µg/ml) of the same molecule?
Answer: Its activity at 7.8 µg/mL is 85.9%.

Question: What about the activity at 15.6 µg/mL ([2]; Toxoplasma gondii, 15.6 µg/ml) of the same molecule?
Answer: Its activity at 15.6 µg/mL is 63.6%.

Question: What about the activity at 31.2 µg/mL ([2]; Toxoplasma gondii, 31.2 µg/ml) of the same molecule?
Answer: Its activity at 31.2 µg/mL is 49.4%.

Question: And the activity at 62.5 µg/mL ([2]; Toxoplasma gondii, 62.5 µg/ml)?
Answer: The activity at 62.5 µg/mL was 36.1%.

Question: What about the activity at 125 µg/mL ([2]; Toxoplasma gondii, 125.0 µg/ml) of the same molecule?
Answer: The activity at 125 µg/mL was 17.7%.

Question: And the IC50 ([2]; Toxoplasma gondii, GraphPad Prism curves, read-out: IC50 (50% inhibition of T. gondii proliferation in vitro))?
Answer: Its IC50 is 31.5 µg/mL (≈ 75.5 µM).

Question: Which “Viability L929” value ([1]; 0.9 µg/ml) does the source give for C/C(=N\Nc1nc(-c2ccc3[nH]c(=O)oc3c2)cs1)c1ccc(Nc2nc(N)nc(N)n2)cc1 [Compound 4l, (E)-6-(2-(2-(1-(4-(4,6-diamino-1,3,5-triazin-2-yloamino)phenyl)ethylidene)hydrazinyl)thiazol-4-yl)-benzo[d]oxazol-2(3H)-on] here?
Answer: Its value is 103.88%.

Question: And the “Viability L929” value ([1]; 1.8 µg/ml)?
Answer: Its value is 109.00%.

Question: And the “Viability L929” value ([1]; 3.9 µg/ml)?
Answer: Its value is 103.03%.

Question: And the “Viability L929” value ([1]; 7.8 µg/ml)?
Answer: The value was 101.74%.

Question: What about the “Viability L929” value ([1]; 15.6 µg/ml) of the same molecule?
Answer: Its value is 105.02%.

Question: And the “Viability L929” value ([1]; 31.2 µg/ml)?
Answer: Its value is 105.52%.

Question: And the “Viability L929” value ([1]; 62.5 µg/ml)?
Answer: Its value is 108.10%.

Question: What about the “CC30 L929” value [1] of the same molecule?
Answer: The value was greater than 62.5 µg/mL.

Question: What about the “T. gondii intracellular proliferation” value ([2]; 0.9 µg/ml) of the same molecule?
Answer: Its value is 99.98%.

Question: What about the “T. gondii intracellular proliferation” value ([2]; 1.8 µg/ml) of the same molecule?
Answer: The value was 101.25%.

Question: What about the “T. gondii intracellular proliferation” value ([2]; 3.9 µg/ml) of the same molecule?
Answer: Its value is 106.91%.

Question: And the “T. gondii intracellular proliferation” value ([2]; 7.8 µg/ml)?
Answer: Its value is 79.89%.

Question: And the “T. gondii intracellular proliferation” value ([2]; 15.6 µg/ml)?
Answer: The value was 56.46%.

Question: And the “T. gondii intracellular proliferation” value ([2]; 31.2 µg/ml)?
Answer: The value was 45.15%.

Question: What about the “T. gondii intracellular proliferation” value ([2]; 62.5 µg/ml) of the same molecule?
Answer: The value was 20.34%.

Question: What about the “IC50 (50% inhibition of T. gondii proliferation in vitro)” value ([2]; GraphPad Prism curves) of the same molecule?
Answer: Its value is 23.09 µg/mL.
